Laboratory results: PubChem BioAssay (NCI)
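Dose response: 5 concentrations. Exposure: 48 h. Format: 96-well plates. Endpoint: linear interpolation; highest concentration if not reached. GI50 = concentration required for 50% inhibition of growth. The concentration for full growth arrest is given as TGI.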

What was measured:
Experiment in all cases: growth of human tumour cells (NCI), 48 h
A549 NSCLC = test system: A549 NSCLC
HT29 colon = test system: HT29 colon
K-562 leukemia = test system: K-562 leukemia
NCI-H460 lung = test system: NCI-H460 lung
NCI-H522 lung = test system: NCI-H522 lung
SF-539 CNS = test system: SF-539 CNS
SK-MEL-2 melanoma = test system: SK-MEL-2 melanoma
T-47D breast = test system: T-47D breast
TK-10 renal = test system: TK-10 renal
U251 CNS = test system: U251 CNS

Compound	GI50 (A549 NSCLC) [µM]	TGI (A549 NSCLC) [µM]	GI50 (HT29 colon) [µM]	TGI (HT29 colon) [µM]	GI50 (K-562 leukemia) [µM]	TGI (K-562 leukemia) [µM]	GI50 (NCI-H460 lung) [µM]	TGI (NCI-H460 lung) [µM]	GI50 (NCI-H522 lung) [µM]	TGI (NCI-H522 lung) [µM]	GI50 (SF-539 CNS) [µM]	TGI (SF-539 CNS) [µM]	GI50 (SK-MEL-2 melanoma) [µM]	TGI (SK-MEL-2 melanoma) [µM]	GI50 (T-47D breast) [µM]	TGI (T-47D breast) [µM]	GI50 (TK-10 renal) [µM]	TGI (TK-10 renal) [µM]	GI50 (U251 CNS) [µM]	TGI (U251 CNS) [µM]
Cc1ccccc1-n1c(/C=C\c2ccccn2)nc2ccccc2c1=O	26	> 100	19.7	> 100	4.42	90.2	9.29	42.1	5.7	39.1	18.6	55	14.4	38.5	5.99	64.8	32.6	> 100	11	25.8
C=C1C(=O)O[C@H]2[C@H]1[C@H](OC(=O)/C(C)=C\C)C[C@]1(CO1)[C@@H]1[C@H](OC(C)=O)C=C(C)[C@]21O		> 100		30.4		11.8		> 89.8		16.8		> 93.9		> 58.3		36.5		23.1		52
Cc1c2ncccc2nc2[nH]c3ccc(OCCN(C)C)cc3c12	1.87	10.3	0.961	6.05	0.802	14.6	1.93	11	2.41	15.9	2.58	13.9	3.03	15.1	2.8	> 100	2.42	9.55	2.68	17.3
CC12CCc3ccccc3C1=Nc1ccccc12 (stereo not given)		> 100		> 100		> 100		> 100		> 100		78.5		> 100		> 100		> 100		> 100
CCOC(=O)N1C/C(=C/c2ccc(OC)cc2)C(=O)/C(=C/c2ccc(OC)cc2)C1	2.33	6.96	0.79	2.53	1.72	> 100	3.13	> 100	2.91	11.1	1.81	3.7	13.5	> 56.3	3.79	> 100	2.91	8.58	1.74	3.54
O=C1/C(=C/c2ccc([N+](=O)[O-])s2)Oc2ccccc21	1.66	3.88	0.771	4.67	0.243	0.728	1.51	3.53	0.189	0.382	0.654	2.1	0.945	3.04	0.29	4.12	1.68	3.59	0.561	1.82
CCCCCCNC(=O)Oc1ccc(/C(=C(\C)c2ccccc2)c2ccc(OCCN3CCCCC3)cc2)cc1	4.31	18.6	1.38	3.89	1.7	4.96	2.05	4.35	1.91	4.07	1.75	3.22	2	4.33	1.14	4.87	7.85	21.4	1.81	3.81
